According to patent EP4745134A1 (Jiangsu Yahong Meditech Co., Ltd., priority 2023, dated 2025):

Legend:
HCT116 MTAP KO cells = test: Inhibitory activity against cell proliferation (CellTiter Glo, 6 days), HCT116 MTAP KO; type: cell-based; details: for IC50: Homo sapiens, HCT-116, 144 h, HCT116 MTAP KO cells, 6 days, CellTiter Glo, read-out: HCT116 MTAP KO IC50; for Selectivity HCT 116-WT/ HCT116 MTAP KO: ratio of IC50 HCT116-WT / HCT116 MTAP KO
In short: (§1)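 Cells were seeded at 250 per well in McCoy's 5A with 10% FBS and left overnight at 37°C, 5% CO2. Compounds were added as 8-point, 4-fold dilutions from 10000 nM, with DMSO-only controls, for 6 days. IC50 values came from CellTiter Glo luminescence.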

HCT116-WT cells = test: Inhibitory activity against cell proliferation (CellTiter Glo, 6 days), HCT116-WT; type: cell-based; details: 144 h, HCT116-WT cells, 6 days, CellTiter Glo; read-out: HCT116-WT IC50
In short: as §1

PRMT5-MTA = PRMT5-MTA (Homo sapiens, UniProt O14744); test: Enzymatic inhibitory activity against PRMT5-MTA (AlphaScreen); type: biochemical; details: read-out: IC50
In short: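 PRMT5/[…] (1 nM) was preincubated for 30 min at room temperature with 1 µM […] and 2.5 µM SAM, then exposed to compound (10-point, 3-fold from 1000 nM) for 15 min at 23 °C. Histone H4 substrate (5 nM) was added and reacted for 45 min at 23 °C. Symmetric dimethyl-R3 H4 was detected by AlphaScreen and IC50 calculated.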

PRMT5-MTA, sequence (O14744 whole entry): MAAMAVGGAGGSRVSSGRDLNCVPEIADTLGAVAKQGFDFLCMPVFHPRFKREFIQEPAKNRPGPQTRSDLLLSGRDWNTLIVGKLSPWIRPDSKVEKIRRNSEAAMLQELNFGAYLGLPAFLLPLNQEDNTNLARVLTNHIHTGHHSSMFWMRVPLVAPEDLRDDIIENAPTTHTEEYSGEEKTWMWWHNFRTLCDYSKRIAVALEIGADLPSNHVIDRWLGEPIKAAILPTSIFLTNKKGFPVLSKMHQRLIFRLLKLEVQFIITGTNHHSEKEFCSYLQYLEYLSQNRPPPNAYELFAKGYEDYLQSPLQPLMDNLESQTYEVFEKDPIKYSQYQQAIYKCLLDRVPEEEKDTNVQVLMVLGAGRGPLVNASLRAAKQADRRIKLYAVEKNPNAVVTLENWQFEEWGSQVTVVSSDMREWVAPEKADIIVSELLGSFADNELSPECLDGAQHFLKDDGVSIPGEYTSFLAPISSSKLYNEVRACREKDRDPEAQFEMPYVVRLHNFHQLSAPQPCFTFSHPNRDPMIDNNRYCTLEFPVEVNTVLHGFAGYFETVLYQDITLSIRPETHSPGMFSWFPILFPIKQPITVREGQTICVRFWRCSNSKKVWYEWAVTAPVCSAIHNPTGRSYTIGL
PRMT5-MTA, sequence (Q9BQA1 whole entry partner): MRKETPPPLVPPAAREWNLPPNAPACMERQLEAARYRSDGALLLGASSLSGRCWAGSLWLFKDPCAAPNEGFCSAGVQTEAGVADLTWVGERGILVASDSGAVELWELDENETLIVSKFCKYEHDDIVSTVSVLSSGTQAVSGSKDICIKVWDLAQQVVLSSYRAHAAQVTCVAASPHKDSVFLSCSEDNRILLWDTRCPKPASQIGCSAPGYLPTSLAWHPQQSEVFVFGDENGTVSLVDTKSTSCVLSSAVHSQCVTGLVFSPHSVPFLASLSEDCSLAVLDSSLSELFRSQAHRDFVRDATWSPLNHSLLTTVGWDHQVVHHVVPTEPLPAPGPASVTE

SMILES | IC50 (HCT116 MTAP KO cells) [nM] | Selectivity HCT 116-WT/ HCT116 MTAP KO (HCT116 MTAP KO cells) | IC50 (HCT116-WT cells) [nM] | IC50 (PRMT5-MTA) [nM]
Cc1cc2cc(C(=O)N(Cc3ccc(-c4ccccc4)cn3)N(C)c3ncccn3)ccc2nc1N [Example 202, 2-amino-N',3-dimethyl-N-((5-phenylpyridin-2-yl)methyl)-N'-(pyrimidin-2-yl)quin oline-6-carbohydrazide] | 74 | 14.26 | 1060 | 2.9
Cc1cc2cc(C(=O)N(Cc3ccc(C(F)(F)F)cn3)N(C)c3ncc4[nH]ccc4n3)ccc2nc1N [Compound 120, 2-amino-N',3-dimethyl-N'-(5H-pyrrolo[3,2-d]pyrimidin-2-yl)-N-((5-(trifluoromethyl)pyridin-2-yl)methyl)quinoline-6-carbo hydrazide] | 10 | 17.00 | 170 | 2.5
CN(c1ncccn1)N(Cc1ccc(-c2cnn(C(F)(F)F)c2)cn1)C(=O)c1ccc2nc(N)c(CO)cc2c1 [Example 322, 2-amino-3-(hydroxymethyl)-N'-methyl-N '-(pyrimidin-2-yl)-N-((5-(1-(trifluoromethyl)-1H-pyrazol-4-yl)pyridin-2-yl)methyl) quinoline-6-carbohydrazide] | 268 | 16.31 | 4370 | 4.4
CN(c1ncccn1)N(Cc1ccc(C(F)(F)F)cn1)C(=O)c1ccc2nc(N)c3cnccc3c2c1 [Example 308, 5-amino-N'-methyl-N'-(pyrimidin-2-yl)-N-((5-(trifluoromethyl)pyridin-2-yl)methyl)ben zo[c][2,7]naphthyridine-9-carbohydrazide] | 11 | 19.64 | 216 | 1.1
CN(c1ncccn1)N(Cc1ccc(C(F)(F)F)cn1)C(=O)c1ccc2nc(N)c(C3CC3)cc2c1 [Example 25, 2-amino-3-cyclopropyl-N'-methyl-N'-(pyrimidin-2-yl)-N-((5-(trifluoromethyl)pyridin-2-yl)methyl)quinoline-6-carbohydrazide] | 110 | 25.64 | 2820 | 2
Cc1cc2cc(C(=O)N(Cc3ccc(C(F)(F)F)cn3)Nc3ncccn3)ccc2nc1N [Example 59, 2-amino-3-methyl-N'-(pyrimidin-2-yl)-N-((5-(trifluoromethyl)pyridin-2-yl)methyl) quinoline-6-carbohydrazide] | 257 | 16.43 | 4220 | 2
Cc1cc2cc(C(=O)N(Cc3ccc(-c4scnc4CO)cn3)N(C)c3ncccn3)ccc2nc1N [Example 236, 2-amino-N-((5-(4-(hydroxymethyl)thiazo 1-5-yl)pyridin-2-yl)methyl)-N',3-dimethyl -N'-(pyrimidin-2-yl)quinoline-6-carbohyd razide] | 26 | 42.85 | 1110 | 6
Cc1cc2nc(N)c3cnn(C)c3c2cc1C(=O)N1CCCN1c1ncc(-c2cscn2)cc1F [Example 486, (4-amino-1,7-dimethyl-1H-pyrazolo[4,3-c]quinolin-8-yl)(2-(3-fluoro-5-(thiazol-4-yl)pyridin-2-yl)pyrazolidin-1-yl)methanone] | 34 | 41.12 | 1400 | 6.8
Cc1cc2nc(N)c3cnn(C)c3c2cc1C(=O)N1CCCCN1c1ccc(C(F)(F)F)cn1 [Example 343, (4-amino-1,7-dimethyl-1H-pyrazolo[4,3-c]quinolin-8-yl)(2-(5-(trifluoromethyl)pyridin-2-yl)tetrahydropyridazin-1 (2H)-yl) methanone] | 212 | 22.90 | 4860 | 3.9
Cc1cc2cc(C(=O)N(Cc3ccc(C(F)(F)F)cn3)N(C)c3cnccn3)ccc2nc1N [Example 34, 2-amino-N',3-dimethyl-N'-(pyrazin-2-yl) -N-((5-(trifluoromethyl)pyridin-2-yl)methyl)quinoline-6-carbohydrazide] | 58 | 21.90 | 1270 | 1.5
Cc1cc2cc(C(=O)N(Cc3ccc(-c4cnn(C)c4)cn3)N(C)c3ncccc3F)ccc2nc1N [Example 179, 2-amino-N'-(3-fluoropyridin-2-yl)-N',3-di methyl-N-((5-(1-methyl-1H-pyrazol-4-yl)pyridin-2-yl)methyl)quinoline-6-carbohy drazide] | 64 | 20.56 | 1320 | 3.4
COc1nc(C)ccc1-c1ccc(CN(C(=O)c2ccc3nc(N)c(C)cc3c2)N(C)c2ncccn2)nc1 [Example 137, 2-amino-N-((2'-methoxy-6'-methyl-[3,3'-bipyridine]-6-yl)methyl)-N',3-dimethyl-N'-(pyrimidin-2-yl)quinoline-6-carbohydrazide] | 110 | 18.07 | 1990 | 1.3
